Source: patent publication US20090099231A1, “3-Sulfonylamino-Pyrrolidine-2-One Derivatives as Factor Xa Inhibitors” (priority 2005, published 2009)
Structures can show the parent of a compound that is named as a salt.

Legend:
human plasma = experiment: Measurement of Prothrombin Time (PT), time to clot formation in plasma; conditions: pooled plasma from 4 donors, test compound 0.03 to 100 uM, Thromboplastin C Plus
Description: Blood was collected into a sodium citrate solution (ratio 9:1) to give a final concentration of 0.38% citrate. Plasma was generated by centrifugation of citrated blood samples at 1200×g for 20 min at 4° C. and stored at −20° C. until use.
The PT test was performed using the BCS Coagulation Analyzer (Dade Behring). For assay, 50 ul of plasma containing test compound at concentrations ranging from 0.03 to 100 uM (made from a 100 uM stock containing 1% DMSO in plasma) was combined with 100 ul of Thromboplastin C Plus (Dade Behring). Upon addition of the reagents, absorbance at 405 nm was monitored and time to clot formation is determined (normal range for human plasma is 10.6-12.4 seconds).

human Factor Xa = human Factor Xa (Homo sapiens, UniProt P00742); experiment: In vitro assay for inhibition of Factor Xa (fluorogenic assay, Rhodamine 110 bis-Cbz-glycylglycyl-L-arginine amide substrate); type: biochemical; conditions: for Factor Xa inhibitory activity: human Factor Xa 0.0003 U.ml-1, substrate 10 μM, 15 min preincubation, room temperature, pH 7.4; for Ki: Ki=IC50/(1+[Substrate]/Km), i.e. IC50 divided by 1.6, human Factor Xa fluorogenic assay
Description: Compounds of the present invention were tested for their Factor Xa inhibitory activity as determined in vitro by their ability to inhibit human Factor Xa in a fluorogenic assay, using Rhodamine 110, bis-Cbz-glycylglycyl-L-arginine amide as the fluorogenic substrate. Compounds were diluted from a 10 mM stock solution in dimethylsulfoxide at appropriate concentrations. Assay was performed at room temperature using buffer consisting of: 50 mM Tris-HCl, 150 mM NaCl, 5 mM CaCl2, pH 7.4 containing human Factor Xa (final concentration of 0.0003 U.ml-1). Compound and enzyme were preincubated for 15 min prior to addition of the substrate (final concentration of 10 μM). The reaction was stopped after 3 hrs with the addition of H-D-Phe-Pro-Arg-Chloromethylketone. An LJL-Analyst fluorimeter was used to monitor fluorescence with 485 nm excitation/535 nm emission. To obtain IC50 values the data were analysed using ActivityBase® and XLfit®.
Ki=IC50/(1+[Substrate]/Km)
The Ki value for the above assay can be obtained by dividing the IC50 value by 1.6.

human Factor Xa, sequence (P00742 235-488 limits assumed): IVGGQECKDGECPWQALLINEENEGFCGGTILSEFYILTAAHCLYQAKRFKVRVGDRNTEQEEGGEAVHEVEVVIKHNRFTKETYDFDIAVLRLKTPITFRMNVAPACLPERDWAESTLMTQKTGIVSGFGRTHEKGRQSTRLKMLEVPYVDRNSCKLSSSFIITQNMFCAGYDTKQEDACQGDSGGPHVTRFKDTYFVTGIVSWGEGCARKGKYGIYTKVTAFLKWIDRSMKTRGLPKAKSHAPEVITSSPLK
human Factor Xa, sequence (P00742 41-179 partner limits assumed): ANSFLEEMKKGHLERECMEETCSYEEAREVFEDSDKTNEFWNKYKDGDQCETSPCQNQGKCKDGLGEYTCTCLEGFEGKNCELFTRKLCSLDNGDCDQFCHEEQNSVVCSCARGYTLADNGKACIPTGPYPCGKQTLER

| Structure (SMILES) | activity in prothrombin time (PT) test (human plasma) | Factor Xa inhibitory activity (human Factor Xa) | Ki (human Factor Xa) [nM] |
| --- | --- | --- | --- |
| Cl.O=C1[C@@H](NS(=O)(=O)c2ccc3cc(Cl)ccc3c2)CCN1c1ccc2c(c1)CNCC2 [Example 11, 6-Chloro-N-[(3S)-2-oxo-1-(1,2,3,4-tetrahydro-7-isoquinolinyl)-3-pyrrolidinyl]-2-naphthalenesulfonamide hydrochloride] | exhibit activity | exhibit Factor Xa inhibitory activity |  |
| Cl.O=C1[C@@H](NS(=O)(=O)/C=C/c2ccc(Cl)s2)CCN1c1cc2c(cc1F)CNCC2 [Example 22, (E)-2-(5-Chloro-2-thienyl)-N-[(3S)-1-(7-fluoro-1,2,3,4-tetrahydro-6-isoquinolinyl)-2-oxo-3-pyrrolidinyl]ethenesulfonamide hydrochloride] | exhibit activity | exhibit Factor Xa inhibitory activity |  |
| Cl.O=C1[C@@H](NS(=O)(=O)c2ccc3c(Cl)c[nH]c3c2)CCN1c1cc2c(cc1Cl)CNCC2 [Example 26, 3-Chloro-N-[(3S)-1-(7-chloro-1,2,3,4-tetrahydro-6-isoquinolinyl)-2-oxo-3-pyrrolidinyl]-1H-indole-6-sulfonamide hydrochloride] | exhibit activity | exhibit Factor Xa inhibitory activity | < 10 |
| CN1CCc2cc(N3CC[C@H](NS(=O)(=O)/C=C/c4ccc(Cl)cc4)C3=O)ccc2C1.O=CO [Example 37, (E)-2-(4-Chlorophenyl)-N-[(3S)-1-(2-methyl-1,2,3,4-tetrahydro-6-isoquinolinyl)-2-oxo-3-pyrrolidinyl]ethenesulfonamide formate] | exhibit activity | exhibit Factor Xa inhibitory activity |  |
| Cl.O=C1[C@@H](NS(=O)(=O)c2ccc(-c3ccc(Cl)s3)s2)CCN1c1ccc2c(c1)CCNC2 [Example 10, 5′-Chloro-N-[(3S)-2-oxo-1-(1,2,3,4-tetrahydro-6-isoquinolinyl)-3-pyrrolidinyl]-2,2′-bithiophene-5-sulfonamide hydrochloride] | exhibit activity | exhibit Factor Xa inhibitory activity |  |
| O=C1[C@@H](NS(=O)(=O)c2cc3ccc(Cl)cc3[nH]2)CCN1c1ccc2c(c1)CCNC2.O=CO [Example 6, 6-Chloro-N-[(3S)-2-oxo-1-(1,2,3,4-tetrahydro-6-isoquinolinyl)-3-pyrrolidinyl]-1H-indole-2-sulfonamide formate] | exhibit activity | exhibit Factor Xa inhibitory activity | < 10 |
| Cc1cc2c(cc1N1CC[C@H](NS(=O)(=O)/C=C/c3ccc(Cl)s3)C1=O)CCNC2.Cl [Example 28, (E)-2-(5-Chloro-2-thienyl)-N-[(3S)-1-(7-methyl-1,2,3,4-tetrahydro-6-isoquinolinyl)-2-oxo-3-pyrrolidinyl]ethenesulfonamide hydrochloride] | exhibit activity | exhibit Factor Xa inhibitory activity |  |
| Cl.O=C1[C@@H](NS(=O)(=O)CCc2ccc(Cl)s2)CCN1c1ccc2c(c1)CNCC2 [Example 12, 2-(5-Chloro-2-thienyl)-N-[(3S)-2-oxo-1-(1,2,3,4-tetrahydro-7-isoquinolinyl)-3-pyrrolidinyl]ethanesulfonamide hydrochloride] | exhibit activity | exhibit Factor Xa inhibitory activity |  |
| Cl.O=C1[C@H](NS(=O)(=O)c2ccc3cc(Cl)ccc3c2)CCN1c1ccc2c(c1)CCNC2 [Example 16, 6-Chloro-N-[(3R)-2-oxo-1-(1,2,3,4-tetrahydro-6-isoquinolinyl)-3-pyrrolidinyl]-2-naphthalenesulfonamide hydrochloride] | exhibit activity | exhibit Factor Xa inhibitory activity |  |
| Cl.O=C1[C@@H](NS(=O)(=O)/C=C/c2ccc(Cl)s2)CCN1c1cc2c(cc1Cl)CNCC2 [Example 25, (E)-N-[(3S)-1-(7-Chloro-1,2,3,4-tetrahydro-6-isoquinolinyl)-2-oxo-3-pyrrolidinyl]-2-(5-chloro-2-thienyl)ethenesulfonamide hydrochloride] | exhibit activity | exhibit Factor Xa inhibitory activity |  |
| Cl.O=C1[C@@H](NS(=O)(=O)c2ccc3cc(Cl)ccc3c2)CCN1c1cc2c(cc1Cl)CNCC2 [Example 24, 6-Chloro-N-[(3S)-1-(7-chloro-1,2,3,4-tetrahydro-6-isoquinolinyl)-2-oxo-3-pyrrolidinyl]-2-naphthalenesulfonamide hydrochloride] | exhibit activity | exhibit Factor Xa inhibitory activity |  |
| Cl.O=C1[C@@H](NS(=O)(=O)c2ccc3c(Cl)c[nH]c3c2)CCN1c1ccc2c(c1F)CCNC2 [Example 19, 3-Chloro-N-[(3S)-1-(5-fluoro-1,2,3,4-tetrahydro-6-isoquinolinyl)-2-oxo-3-pyrrolidinyl]-1H-indole-6-sulfonamide hydrochloride] | exhibit activity | exhibit Factor Xa inhibitory activity |  |
| Cl.O=C1[C@@H](NS(=O)(=O)c2ccc3c(Cl)c[nH]c3c2)CCN1c1cc2c(cc1F)CNCC2 [Example 23, 3-Chloro-N-[(3S)-1-(7-fluoro-1,2,3,4-tetrahydro-6-isoquinolinyl)-2-oxo-3-pyrrolidinyl]-1H-indole-6-sulfonamide hydrochloride] | exhibit activity | exhibit Factor Xa inhibitory activity |  |
| CC1NCCc2cc(N3CC[C@H](NS(=O)(=O)/C=C/c4ccc(Cl)s4)C3=O)ccc21 (stereo partly drawn) [Example 32, (E)-2-(5-Chloro-2-thienyl)-N-[(3S)-1-(1-methyl-1,2,3,4-tetrahydro-6-isoquinolinyl)-2-oxo-3-pyrrolidinyl]ethenesulfonamide hydrochloride] | exhibit activity | exhibit Factor Xa inhibitory activity | < 10 |
| Cl.O=C1[C@@H](NS(=O)(=O)c2cc3ccc(Cl)cc3s2)CCN1c1ccc2c(c1)CCNC2 [Example 3, 6-Chloro-N-[(3S)-2-oxo-1-(1,2,3,4-tetrahydro-6-isoquinolinyl)-3-pyrrolidinyl]-1-benzothiophene-2-sulfonamide hydrochloride] | exhibit activity | exhibit Factor Xa inhibitory activity | < 10 |
| O=C1[C@@H](NS(=O)(=O)c2cc3cc(Cl)ccc3[nH]2)CCN1c1ccc2c(c1)CCNC2.O=CO [Example 36, 5-Chloro-N-[(3S)-2-oxo-1-(1,2,3,4-tetrahydro-6-isoquinolinyl)-3-pyrrolidinyl]-1H-indole-2-sulfonamide] | exhibit activity | exhibit Factor Xa inhibitory activity | < 10 |
| CN([C@H]1CCN(c2ccc3c(c2)CCNC3)C1=O)S(=O)(=O)/C=C/c1ccc(Cl)s1 [Example 34, (E)-2-(5-Chloro-2-thienyl)-N-methyl-N-[(3S)-2-oxo-1-(1,2,3,4-tetrahydro-6-isoquinolinyl)-3-pyrrolidinyl]ethenesulfonamide hydrochloride] |  | exhibit Factor Xa inhibitory activity | < 10 |
| O=C1[C@@H](NS(=O)(=O)c2ccc3cc[nH]c3c2)CCN1c1ccc2c(c1)CCNC2.O=CO [Example 5, N-[(3S)-2-Oxo-1-(1,2,3,4-tetrahydro-6-isoquinolinyl)-3-pyrrolidinyl]-1H-indole-6-sulfonamide formate] | exhibit activity |  |  |
| O=C1[C@@H](NS(=O)(=O)c2ccc3cc[nH]c3c2)CCN1c1ccc2c(c1)CNCC2.O=CO [Example 15, N-[(3S)-2-Oxo-1-(1,2,3,4-tetrahydro-7-isoquinolinyl)-3-pyrrolidinyl]-1H-indole-6-sulfonamide formate] |  | exhibit Factor Xa inhibitory activity |  |
